From patent publication US20090238808A1, “Process for the identification of novel enzyme interacting compounds” (priority 2005, published 2009)

Experiments:
Test in all cases: Kinobeads elution with test compound, mouse brain lysate, MS
Assay type in all cases: binding
Settings in all cases: kinase released from kinobeads by specific elution
LYN = target: T1, LYN (Mus musculus, UniProt P25911)
T1 construct: from tissue; host or cells: mouse brain
Method in brief: (§1)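 Kinobeads preloaded with mouse brain lysate under near-physiological buffer conditions were washed gently, then eluted for 30 min at 4° C with elution buffer holding 1.0 mM test compound; DMSO or DMF (2%) buffer served as control. Released proteins were reduced, alkylated, gel-separated and identified by mass spectrometry.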

QSK = target: T2, QSK (Mus musculus, UniProt Q6P4S6)
T2 construct: from tissue; host or cells: mouse brain
Method in brief: as §1

ALK2 = ALK2 (Mus musculus, UniProt P37172)
Method in brief: as §1

PAK5 = target: T3, PAK5 (Mus musculus, UniProt Q8C015)
T3 construct: from tissue; host or cells: mouse brain
Method in brief: as §1

PKCg = target: T4, PKCg (Mus musculus, UniProt P63318)
T4 construct: from tissue; host or cells: mouse brain
Method in brief: as §1

TBK1 = target: T5, TBK1 (Mus musculus, UniProt Q9WUN2)
T5 construct: from tissue; host or cells: mouse brain
Method in brief: as §1

LIMK1ps = test system: LIMK1ps
Method in brief: as §1

AMPKa1 = AMPKa1 (Mus musculus, UniProt Q5EG47)
Method in brief: as §1

NEK9 = target: T6, NEK9 (Mus musculus, UniProt Q8K1R7)
T6 construct: from tissue; host or cells: mouse brain
Method in brief: as §1

BRAFps = test system: BRAFps
Method in brief: as §1

T3 sequence (Q8C015 whole entry): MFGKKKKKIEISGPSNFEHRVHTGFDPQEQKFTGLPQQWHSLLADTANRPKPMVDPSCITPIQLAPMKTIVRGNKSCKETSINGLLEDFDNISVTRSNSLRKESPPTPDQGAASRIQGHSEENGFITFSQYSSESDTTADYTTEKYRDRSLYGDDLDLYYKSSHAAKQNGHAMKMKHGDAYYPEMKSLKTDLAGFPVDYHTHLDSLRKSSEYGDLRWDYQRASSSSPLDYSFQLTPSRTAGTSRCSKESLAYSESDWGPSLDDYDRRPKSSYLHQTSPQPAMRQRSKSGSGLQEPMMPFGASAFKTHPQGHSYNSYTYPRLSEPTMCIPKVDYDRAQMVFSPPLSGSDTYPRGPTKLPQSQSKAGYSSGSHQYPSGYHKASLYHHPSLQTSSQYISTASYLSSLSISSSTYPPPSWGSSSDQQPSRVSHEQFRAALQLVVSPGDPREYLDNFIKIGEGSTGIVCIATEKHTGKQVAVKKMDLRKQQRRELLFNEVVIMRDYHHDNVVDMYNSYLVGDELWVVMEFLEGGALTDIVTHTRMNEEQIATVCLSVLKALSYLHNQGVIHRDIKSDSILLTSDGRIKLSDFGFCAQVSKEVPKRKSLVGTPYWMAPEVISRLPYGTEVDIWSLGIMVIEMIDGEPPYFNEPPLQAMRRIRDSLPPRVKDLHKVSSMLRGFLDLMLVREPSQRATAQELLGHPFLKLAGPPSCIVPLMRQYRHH
T1 sequence (P25911 whole entry): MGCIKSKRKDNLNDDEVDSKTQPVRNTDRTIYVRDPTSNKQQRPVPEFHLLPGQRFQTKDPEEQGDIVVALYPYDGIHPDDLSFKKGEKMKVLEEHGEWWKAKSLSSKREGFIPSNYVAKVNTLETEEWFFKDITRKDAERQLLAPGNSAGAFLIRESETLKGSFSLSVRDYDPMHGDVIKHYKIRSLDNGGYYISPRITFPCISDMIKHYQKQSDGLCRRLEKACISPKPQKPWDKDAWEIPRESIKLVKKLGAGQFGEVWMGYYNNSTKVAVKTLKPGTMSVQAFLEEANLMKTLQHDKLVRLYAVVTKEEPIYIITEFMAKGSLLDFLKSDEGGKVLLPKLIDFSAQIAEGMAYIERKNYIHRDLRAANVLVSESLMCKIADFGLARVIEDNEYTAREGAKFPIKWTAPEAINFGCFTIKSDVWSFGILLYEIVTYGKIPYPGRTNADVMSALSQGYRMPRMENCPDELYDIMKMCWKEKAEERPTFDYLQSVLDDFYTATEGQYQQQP
T2 sequence (Q6P4S6 whole entry): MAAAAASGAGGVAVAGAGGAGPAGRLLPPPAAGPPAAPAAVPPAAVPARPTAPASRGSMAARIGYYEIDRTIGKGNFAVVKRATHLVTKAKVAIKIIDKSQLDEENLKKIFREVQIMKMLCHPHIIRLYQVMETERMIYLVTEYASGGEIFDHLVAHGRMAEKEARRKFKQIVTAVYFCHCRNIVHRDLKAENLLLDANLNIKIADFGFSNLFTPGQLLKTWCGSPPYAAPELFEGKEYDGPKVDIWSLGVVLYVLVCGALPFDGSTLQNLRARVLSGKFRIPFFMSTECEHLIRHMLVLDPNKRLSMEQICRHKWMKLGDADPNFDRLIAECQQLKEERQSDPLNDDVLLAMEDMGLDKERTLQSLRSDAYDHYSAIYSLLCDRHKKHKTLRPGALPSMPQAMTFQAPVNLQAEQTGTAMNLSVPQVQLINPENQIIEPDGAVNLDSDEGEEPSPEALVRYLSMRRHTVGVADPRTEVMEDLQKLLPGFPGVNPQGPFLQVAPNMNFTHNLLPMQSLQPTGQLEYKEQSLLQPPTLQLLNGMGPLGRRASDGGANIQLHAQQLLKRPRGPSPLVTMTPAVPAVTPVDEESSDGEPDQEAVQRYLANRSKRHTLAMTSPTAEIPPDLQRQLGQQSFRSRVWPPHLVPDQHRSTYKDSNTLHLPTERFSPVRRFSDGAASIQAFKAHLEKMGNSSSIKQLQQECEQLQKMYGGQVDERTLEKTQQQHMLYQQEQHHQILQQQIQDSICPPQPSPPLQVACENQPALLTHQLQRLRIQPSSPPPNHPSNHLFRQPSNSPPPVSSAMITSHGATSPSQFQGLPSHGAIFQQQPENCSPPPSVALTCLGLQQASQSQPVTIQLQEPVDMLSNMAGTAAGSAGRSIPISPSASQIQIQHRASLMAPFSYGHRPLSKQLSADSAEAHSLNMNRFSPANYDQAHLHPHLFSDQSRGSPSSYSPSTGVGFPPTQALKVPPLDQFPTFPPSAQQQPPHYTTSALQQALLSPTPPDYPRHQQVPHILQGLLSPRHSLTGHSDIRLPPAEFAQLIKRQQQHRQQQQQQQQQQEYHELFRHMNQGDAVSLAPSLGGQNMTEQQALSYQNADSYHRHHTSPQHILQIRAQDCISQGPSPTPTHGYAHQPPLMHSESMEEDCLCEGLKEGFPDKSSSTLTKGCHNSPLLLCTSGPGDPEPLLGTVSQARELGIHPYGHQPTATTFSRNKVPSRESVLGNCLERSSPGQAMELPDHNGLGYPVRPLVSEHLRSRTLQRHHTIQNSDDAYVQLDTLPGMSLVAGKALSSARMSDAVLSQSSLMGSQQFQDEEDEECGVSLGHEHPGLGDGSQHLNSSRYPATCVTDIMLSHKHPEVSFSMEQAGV
T6 sequence (Q8K1R7 whole entry): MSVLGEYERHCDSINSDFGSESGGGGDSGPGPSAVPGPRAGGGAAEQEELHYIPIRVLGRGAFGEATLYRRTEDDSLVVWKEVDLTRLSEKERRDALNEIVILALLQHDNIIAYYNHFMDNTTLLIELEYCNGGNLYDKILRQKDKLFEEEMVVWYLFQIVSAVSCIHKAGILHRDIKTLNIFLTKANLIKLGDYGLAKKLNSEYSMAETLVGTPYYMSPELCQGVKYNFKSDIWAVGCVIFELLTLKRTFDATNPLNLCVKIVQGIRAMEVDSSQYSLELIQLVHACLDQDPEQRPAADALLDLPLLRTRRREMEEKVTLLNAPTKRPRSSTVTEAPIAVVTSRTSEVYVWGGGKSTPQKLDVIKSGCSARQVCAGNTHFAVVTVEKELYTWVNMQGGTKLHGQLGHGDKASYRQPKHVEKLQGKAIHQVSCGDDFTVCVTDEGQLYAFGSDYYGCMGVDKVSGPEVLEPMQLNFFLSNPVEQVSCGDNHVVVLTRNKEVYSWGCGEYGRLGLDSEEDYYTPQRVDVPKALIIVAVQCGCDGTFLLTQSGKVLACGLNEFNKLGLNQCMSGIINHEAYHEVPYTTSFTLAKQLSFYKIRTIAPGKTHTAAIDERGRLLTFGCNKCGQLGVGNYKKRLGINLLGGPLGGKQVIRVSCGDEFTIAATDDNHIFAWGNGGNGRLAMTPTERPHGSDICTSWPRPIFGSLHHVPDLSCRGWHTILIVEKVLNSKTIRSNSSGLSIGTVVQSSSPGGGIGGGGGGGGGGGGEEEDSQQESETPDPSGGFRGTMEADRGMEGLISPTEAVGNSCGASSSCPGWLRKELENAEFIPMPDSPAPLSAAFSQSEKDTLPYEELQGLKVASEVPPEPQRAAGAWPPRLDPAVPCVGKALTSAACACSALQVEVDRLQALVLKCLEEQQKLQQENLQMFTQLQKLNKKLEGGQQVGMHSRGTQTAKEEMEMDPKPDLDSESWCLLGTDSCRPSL
Sequence of ALK2 (P37172 21-509): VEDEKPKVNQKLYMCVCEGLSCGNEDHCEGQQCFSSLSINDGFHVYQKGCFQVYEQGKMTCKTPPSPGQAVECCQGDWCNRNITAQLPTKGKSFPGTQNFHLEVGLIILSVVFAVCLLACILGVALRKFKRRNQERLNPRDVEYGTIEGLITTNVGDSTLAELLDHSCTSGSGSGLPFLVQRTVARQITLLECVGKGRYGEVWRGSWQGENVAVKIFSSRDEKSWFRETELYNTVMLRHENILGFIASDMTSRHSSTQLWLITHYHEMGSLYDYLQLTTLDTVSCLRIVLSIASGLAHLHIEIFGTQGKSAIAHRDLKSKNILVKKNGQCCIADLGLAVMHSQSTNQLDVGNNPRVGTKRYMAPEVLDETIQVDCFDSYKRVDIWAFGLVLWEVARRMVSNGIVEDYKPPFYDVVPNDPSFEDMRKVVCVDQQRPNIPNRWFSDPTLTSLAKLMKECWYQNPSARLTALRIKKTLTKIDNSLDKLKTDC

## CCCCCCCCCCCCOS(=O)(=O)[O-].[Na+] [SDS]
LYN
  mass spectrometry score, LYN: 134
  number of identified peptides, LYN: 6
QSK
  mass spectrometry score, QSK: 153
  number of identified peptides, QSK: 7
ALK2
  mass spectrometry score, ALK2: 65
  number of identified peptides, ALK2: 2

## CNC1CC2OC(C)(C1OC)n1c3ccccc3c3c4c(c5c6ccccc6n2c5c31)C(=O)NC4 (centres unmarked) [CZC9280]
PAK5
  mass spectrometry score, PAK5: 64
  number of identified peptides, PAK5: 1
PKCg
  mass spectrometry score, PKCg: 53
  number of identified peptides, PKCg: 1
TBK1
  mass spectrometry score, TBK1: 48
  number of identified peptides, TBK1: 1

## NCc1ccc(Nc2ncc(F)c(Nc3ccccc3)n2)cc1 [CZC00008004]
LIMK1ps
  mass spectrometry score, LIMK1ps: 186
  number of identified peptides, LIMK1ps: 4
AMPKa1
  mass spectrometry score, AMPKa1: 64
  number of identified peptides, AMPKa1: 2
NEK9
  mass spectrometry score, NEK9: 61
  number of identified peptides, NEK9: 2

## Cn1c(=O)c(-c2c(Cl)cccc2Cl)cc2cnc(Nc3ccc(CN)cc3)cc21 [CZC7324]
BRAFps
  mass spectrometry score, BRAFps: 70
  number of identified peptides, BRAFps: 4
